Here are results for four molecules from PMC4770092, “Subnanometre enzyme mechanics probed by single-molecule force spectroscopy” (Nature Communications, 2016).

Structures are written as SMILES.

The target in assay [1] is T1, AdK 42-144 (Aquifex aeolicus, UniProt O66490, INS42C/INS144C).
T1 construct: full length, Cys inserted between 42/43 and 144/145; N-terminal spacer MAAKGELSG, C-terminal spacer and His6 kept; synthetic gene in pET11a, E. coli BL21(DE3); DNA handles on Cys in trap assay
Briefly: single-molecule optical tweezers, lid closing/opening. In kind it is binding. To be noted: 50 mM Tris pH 7.5, 200 mM KCl; bisubstrate inhibitor.

Assay [2] concerns the target T1, AdK 42-144. Briefly: single-molecule optical tweezers, AP5A competition assay. In kind it is binding. The note with it: 50 mM Tris pH 7.5, 200 mM KCl, about 10 pN load.

T1 sequence (O66490 other isoform, or with tags, fused parts or gaps INS42C/INS144C): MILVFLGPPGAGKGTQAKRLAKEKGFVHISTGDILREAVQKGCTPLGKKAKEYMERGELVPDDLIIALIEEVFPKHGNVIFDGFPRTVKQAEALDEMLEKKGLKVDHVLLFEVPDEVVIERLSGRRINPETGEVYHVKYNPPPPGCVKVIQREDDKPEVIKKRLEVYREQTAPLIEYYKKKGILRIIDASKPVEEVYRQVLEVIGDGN

On to `Nc1ncnc2c1ncn2[C@@H]1O[C@H](COP(=O)(O)OP(=O)(O)OP(=O)(O)OP(=O)(O)OP(=O)(O)OP(=O)(O)OC[C@H]2O[C@@H](n3cnc4c(N)ncnc43)[C@H](O)[C@@H]2O)[C@@H](O)[C@H]1O` [AP6A], for which the “single-molecule optical tweezers, lid closing/opening” value in assay [1] is given as “AP6A binds with the same affinity as AP5A despite its significantly reduced closing distance”.

Turning to `Nc1ncnc2c1ncn2[C@@H]1O[C@H](COP(=O)(O)OP(=O)(O)OP(=O)(O)O)[C@@H](O)[C@H]1O` [ATP], the KD entry in assay [2] (Mg-ATP, 1 μM AP5A competitor) is “nucleotides ADP (yellow), Mg-ADP (green) and Mg-ATP (blue)”. Consider `Nc1ncnc2c1ncn2[C@@H]1O[C@H](COP(=O)(O)OP(=O)(O)OP(=O)(O)OP(=O)(O)OC[C@H]2O[C@@H](n3cnc4c(N)ncnc43)[C@H](O)[C@@H]2O)[C@@H](O)[C@H]1O` [AP4A], for which the “single-molecule optical tweezers, lid closing/opening” value in assay [1] is “We found that AP4A induces full closing of AdK indistinguishable from AP5A”. For the molecule `Nc1ncnc2c1ncn2[C@@H]1O[C@H](COP(=O)(O)OP(=O)(O)O)[C@@H](O)[C@H]1O` [ADP], the KD entry in assay [2] (Mg-ADP, AP5A competitor) was “nucleotides ADP (yellow), Mg-ADP (green) and Mg-ATP (blue)”.
